Where two headings read alike, the source gives them in different places.
Columns and labels:
[1] = Human microsome stability assay; format: in vitro ADME; conditions: human liver microsomes, 1 μM test compound, 0.5 mg/mL microsomal protein, 37° C., pH 7.4, 0-30 minutes
Summary of the method: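 Parent compound remaining was measured by LC-MS/MS at 0, 3, 6, 9, 15 and 30 min, following ACN quench. Reactions held 1 μM compound and 0.5 mg/mL human liver microsomal protein in pH 7.4 phosphate buffer at 37 °C, started by NADPH regeneration (1 mM NADP, 1 mM MgCl2); controls lacked NADPH.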

[2] = test system: HBeAg (surrogate marker for cccDNA) in HepDES19 cells; experiment: Engineered HepDES19 primary screen assay (HBeAg ELISA); format: cell-based, HBV
Summary of the method: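 IC50 values come from 4-parameter logistic fits of HBeAg ELISA signal, the cccDNA surrogate, with CCK-8 run in parallel for viability. Compounds at half-log dilutions with 1% DMSO were applied for 5 days at 37 °C to HepDES19 cells previously cultured 8 days without Tet.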

[3] = test system: HBsAg in HBV-infected PHH; experiment: Cryopreserved primary human hepatocytes (PHH) HBV infection assay, extracellular HBsAg (CLIA); format: cell-based; conditions: Hepatitis B virus, Hepatocyte, 216 h, read-out: HBsAg IC50, Cryopreserved PHH infected with HBV, 9 days post-compound treatment, extracellular HBsAg
Experimental: This assay is used to confirm the anti-HBV effect of the compounds in HBV PHH infection assay. Cryopreserved PHH (BioreclamationIVT, Lot YJM) was thawed at 37° C. and gently transferred into pre-warmed InVitroGRO HT medium (BioreclamationIVT, Cat. S03317). The mixture was centrifuged at 70 relative centrifugal force (RCF) for 3 minutes at RT, and the supernatant was discarded. Pre-warmed InVitroGRO CP medium (BioreclamationIVT, Cat #S03316) was added to the cell pellet to gently re-suspend cells. The cells were seeded at the density of 5.8×10^4 cells per well to collagen I coated 96-well plate (Gibco, Cat. A1142803) with the InVitroGRO CP medium. All plates were incubated at 37° C. with 5% CO2 and 85% humidity.
At 20 hours after plating, the medium was changed to PHH culture medium (Dulbecco's Modified Eagle Medium (DMEM)/F12 (1:1) (Gibco, Cat. 11320-033), 10% fetal bovine semm (Gibco Cat. 10099141), 100 U/mL penicillin, 100 μg/mL streptomycin (Gibco, Cat. 151401-122), […] (Invitrogen Cat. PHG0311L), 20 ng/mL dexamethasone (Sigma, Cat. D4902) and 250 ng/mL human recombinant insulin (Gibco, Cat. 12585-014)). And the cells were incubated at 37° C. with 5% CO2 and 85% humidity for 4 hours. The medium was then changed to pre-warmed PHH culture medium containing 4% polyethylene glycol (PEG) MW8000 (Sigma, Cat. P1458-50 ML) and 1% DMSO (Sigma, Cat. D2650). 5.8×10^6 genomic equivalents of HBV were added into the medium.
At 24 hours post-infection, the cells were gently washed with PBS and refreshed with PHH culture medium supplemented with 1% DMSO, and 0.25 mg/mL Matrix gel (Corning, Cat. 356237) at 200 μL per well. All plates were immediately placed in at 37° C. CO2 incubator.
24 hours later, serial dilutions of compounds made with DMSO were further diluted with the same culture medium (PHH culture medium supplemented with 1% DMSO and 0.25 mg/mL Matrix gel as described above) before they were added to the cells to reach desired final compound concentrations and 1% DMSO concentration. The medium containing the compounds were refreshed every three days.
At 9 days post-compound treatment, extracellular HBsAg level were measured with Chemiluminescence Immuno Assay (CLIA) kit (Autobio, HBsAg Quantitative CLIA). Extracellular HBV DNA was extracted by MagNA Pure 96 system (Roche) and then determined by quantitative PCR with the following primers and probe: […]
HBsAg IC50 and HBV DNA IC50 values were derived from the dose-response curve using 4 parameter logistic curve fit method. The compounds of formula (I) have HBsAg IC50<20 μM, particularly <1 μM; and HBV DNA IC50<50 μM.

[4] = Hepatitis B virus, HepDES19, 120 h, read-out: IC50 (HBeAg level, HepDES19 primary screen assay), HepDES19 cells, 5 days compound incubation, HBeAg ELISA

| Structure (SMILES) | Clearance of Human microsome [1] | IC50 [2, 4] | IC50 [3] | IC50 ([2]; read-out: IC50 (HBeAg level, HepDES19 primary screen assay), HepDES19 cells, 5 days compound incubation, HBeAg ELISA) |
| --- | --- | --- | --- | --- |
| O=c1cc(-c2ccccc2OC[C@H]2C[C@@H](C(=O)O)C2)oc2c(Cl)cccc12 [Example B026-A, Cis-3-[[2-(8-chloro-4-oxo-chromen-2-yl)phenoxy]methyl]cyclobutanecarboxylic acid] | 6.15 mL/min/kg | 39.4 nM | 4970 nM |  |
| Cc1ccc(-c2cc(=O)c3cccc(Cl)c3o2)c(O[C@H]2C[C@@H](C(=O)NS(=O)(=O)C3CC3)C2)c1 [Example B052-A, Cis-3-[2-(8-chloro-4-oxo-chromen-2-yl)-5-methyl-phenoxy]-N-cyclopropylsulfonyl-cyclobutanecarboxamide] | 6.15 mL/min/kg | 10700 nM | 8480 nM |  |
| Cc1ccc(S(=O)(=O)N[C@@H](COc2cc(C(F)(F)F)ccc2-c2cc(=O)c3cccc(Cl)c3o2)C(=O)O)cc1 [Example A097, (2S)-3-[2-(8-chloro-4-oxo-chromen-2-yl)-5-(trifluoromethyl)phenoxy]-2-(p-tolylsulfonylamino)propanoic acid] | 8.78 mL/min/kg | 983 nM | 4030 nM |  |
| CS(=O)(=O)NC(=O)COCCOc1cc(C(F)(F)F)ccc1-c1cc(=O)c2cccc(Cl)c2o1 [Example C120, 2-[2-[2-(8-chloro-4-oxo-chromen-2-yl)-5-(trifluoromethyl)phenoxy]ethoxy]-N-methylsulfonyl-acetamide] | 6.15 mL/min/kg | 1050 nM | 4120 nM |  |
| Cc1ccc(-c2cc(=O)c3cccc(Cl)c3o2)c(O[C@H]2C[C@@H](C(=O)O)C2)c1 [Example B018-A, Cis-3-[2-(8-chloro-4-oxo-chromen-2-yl)-5-methyl-phenoxy]cyclobutanecarboxylic acid] | 6.15 mL/min/kg | 146 nM | 887 nM |  |
| O=C(O)C1CC(Oc2cc(C(F)(F)F)ccc2-c2cc(=O)c3cccc(Cl)c3o2)C1 (stereo not shown) [Example B003, 3-[2-(8-chloro-4-oxo-chromen-2-yl)-5-(trifluoromethyl)phenoxy]cyclobutanecarboxylic acid] | 6.15 mL/min/kg | 468 nM | 4370 nM |  |
| COc1cc(OCCO[C@H]2C[C@@H](C(=O)O)C2)c(-c2cc(=O)c3cccc(Cl)c3o2)cc1OCC1CC1 [Example C082, cis-3-[2-[2-(8-chloro-4-oxo-chromen-2-yl)-4-(cyclopropylmethoxy)-5-methoxy-phenoxy]ethoxy]cyclobutanecarboxylic acid] | 6.15 mL/min/kg | 3970 nM | 9520 nM |  |
| O=C(O)[C@@H]1C[C@@H](Oc2cc(C(F)(F)F)ccc2-c2cc(=O)c3cccc(Cl)c3o2)CN1S(=O)(=O)c1ccccc1 [Example B076, (2S,4R)-1-(benzenesulfonyl)-4-[2-(8-chloro-4-oxo-chromen-2-yl)-5-(trifluoromethyl)phenoxy]pyrrolidine-2-carboxylic acid] | 6.15 mL/min/kg | 111 nM | 1310 nM |  |
| O=C(O)CCCOc1cc(OC(F)(F)F)ccc1-c1cc(=O)c2cccc(Cl)c2o1 [Example A053, 4-[2-(8-chloro-4-oxo-chromen-2-yl)-5-(trifluoromethoxy)phenoxy]butanoic acid] | 7.66 mL/min/kg | 491 nM | 3570 nM |  |
| O=c1cc(-c2ccc(C(F)(F)F)cc2OCCO[C@H]2C[C@@H](C(=O)O)C2)oc2c(Cl)cccc12 [Example C026, Cis-3-[2-[2-(8-chloro-4-oxo-chromen-2-yl)-5-(trifluoromethyl)phenoxy]ethoxy]cyclobutanecarboxylic acid] | 6.81 mL/min/kg | 526 nM | 8950 nM |  |
| O=c1cc(-c2cc(C(F)(F)F)c(Br)cc2OCCO[C@H]2C[C@H](C(=O)O)C2)oc2c(Cl)cccc12 [Example C042-B] | 6.15 mL/min/kg | 15300 nM | 8960 nM |  |
| O=c1cc(-c2ccc(OC(F)(F)F)cc2O[C@H]2C[C@@H](C(=O)O)C2)oc2c(Cl)cccc12 [Example B015-A, Cis-3-[2-(8-chloro-4-oxo-chromen-2-yl)-5-(trifluoromethoxy)phenoxy]cyclobutanecarboxylic acid] | 6.15 mL/min/kg | 3790 nM | 2570 nM |  |
| O=C(O)CCOc1cc(OC(F)(F)F)ccc1-c1cc(=O)c2cccc(Cl)c2o1 [Example A009, 3-[2-(8-chloro-4-oxo-chromen-2-yl)-5-(trifluoromethoxy)phenoxy]propanoic acid] | 6.57 mL/min/kg | 403 nM | 1480 nM |  |
| CS(=O)(=O)NC(=O)[C@H]1C[C@@H](OCCOc2cc(Br)ccc2-c2cc(=O)c3cccc(Cl)c3o2)C1 [Example C122, Cis-3-[2-[5-bromo-2-(8-chloro-4-oxo-chromen-2-yl)phenoxy]ethoxy]-N-methylsulfonyl-cyclobutanecarboxamide] | 7.32 mL/min/kg | 1050 nM | 4810 nM |  |
| Cc1cc(-c2cc(=O)c3cccc(Cl)c3o2)c(OCCC(=O)O)cc1Br [Example A006, 3-[5-bromo-2-(8-chloro-4-oxo-chromen-2-yl)-4-methyl-phenoxy]propanoic acid] |  | 1230 nM | 1080 nM |  |
| NC(=O)COCC(O)COc1cc(Br)ccc1-c1cc(=O)c2cccc(Cl)c2o1 (stereo not shown) [Example C114, 2-[3-[5-bromo-2-(8-chloro-4-oxo-chromen-2-yl)phenoxy]-2-hydroxy-propoxy]acetamide] |  | 1240 nM | 9190 nM |  |
| O=c1cc(-c2ccc(Br)cc2OC[C@H]2C[C@H](C(=O)O)C2)oc2c(Cl)cccc12 [Example B025-B, Trans-3-[[5-bromo-2-(8-chloro-4-oxo-chromen-2-yl)phenoxy]methyl]cyclobutanecarboxylic acid] |  |  | 3060 nM | 2270 nM |
| N#CC1CC(Oc2cc(C(F)(F)F)ccc2-c2cc(=O)c3cccc(Cl)c3o2)C1 (stereo not shown) [Example B070, 3-[2-(8-chloro-4-oxo-chromen-2-yl)-5-(trifluoromethyl)phenoxy]cyclobutanecarbonitrile] |  | 435 nM | 788 nM |  |
| O=C(O)CCOc1cc(OC(F)(F)F)c(Br)cc1-c1cc(=O)c2cccc(Cl)c2o1 [Example A016, 3-[4-bromo-2-(8-chloro-4-oxo-chromen-2-yl)-5-(trifluoromethoxy)phenoxy]propanoic acid] |  | 1030 nM | 828 nM |  |
| COC(=O)CCOc1cc(C(F)(F)F)ccc1-c1cc(=O)c2cccc(Cl)c2o1 [Example A002, methyl 3-[2-(8-chloro-4-oxo-chromen-2-yl)-5-(trifluoromethyl)phenoxy]propanoate] |  | 795 nM | 1820 nM |  |
| CCc1ccc(-c2cc(=O)c3cccc(Cl)c3o2)c(O[C@H]2C[C@@H](C(=O)O)C2)c1 [Example B019-A, Cis-3-[2-(8-chloro-4-oxo-chromen-2-yl)-5-ethyl-phenoxy]cyclobutanecarboxylic acid] |  | 1030 nM | 3960 nM |  |
| O=c1cc(-c2ccc(Br)cc2OCCO[C@H]2C[C@@H](C(=O)O)C2)oc2c(Cl)ccc(C(F)(F)F)c12 [Example C049-A, Cis-3-[2-[5-bromo-2-[8-chloro-4-oxo-5-(trifluoromethyl)chromen-2-yl]phenoxy]ethoxy]cyclobutanecarboxylic acid] |  | 77.5 nM | 7310 nM |  |

Source: patent US11708344B2, “Flavone derivatives for the treatment and prophylaxis of hepatitis B virus disease” (Hoffmann-La Roche Inc., priority 2018, dated 2023)
